One assay deals with KRAS G12C-BRAF complex (Homo sapiens (Human), UniProt P01116+P62937, G12C). Briefly: KRAS-BRAF with CYPA (500 nM) interaction assay (TR-FRET, Example 136). The class given is biochemical. The following applies: KRAS G12C-BRAF disruption. How it is done:
In this example, TR-FRET was also used to measure the compound or compound-CYPA dependent disruption of the KRAS G12C-BRAF complex. This protocol was also used to measure disruption of KRAS G12D or KRAS G12V binding to BRAF by a compound of the invention, respectively. In assay buffer containing 25 mM HEPES PH=7.4 (4-(2-hydroxyethyl)-1-piperazineethanesulfonic acid, Thermo, 15630080), 0.002% Tween20, 0.1% BSA, 100 mM NaCl, 5 mM MgCl2, 10 μM GMPPNP (Guanosine 5′-[β,γ-imido]triphosphate trisodium salt hydrate, Sigma, G0635), […] 384-well assay plate at final concentrations of 50 nM, 6.25 nM and 1 nM, respectively. Compound was present in plate wells as a 16-point 3-fold dilution series starting at a final concentration of 10 μM and incubated for 3 hours. A mixture of MAb Anti-6His-XL665 (Cisbio, 61HISXLB) and Mab anti-GST-TB cryptate (Cisbio, 61GSTTLB) was then added at a final concentration of 6.67 nM and 0.21 nM, respectively, and the plate was incubated for an additional 1.5 hours. TR-FRET signal was read on a PHERstar FSX microplate reader (Ex320 nm, Em 665/615 nm). Compounds that facilitate disruption of the KRAS-BRAF complex were identified as those eliciting a decrease in the TR-FRET ratio relative to DMSO control wells.

In assay [1] the test system is phosphorylation of ERK, KRAS G12V in SW620. The experiment in a line: pERK inhibition assay. It is filed as cell-based. Conditions: Homo sapiens, SW-620, 4 h, SW620 cells. How it is done: (§1) This assay is to measure the ability of test compounds in inhibiting the phosphorylation of ERK, the downstream signaling of KRAS G12C in NCI-H358 cells, KRAS G12D in AGS cells, and KRAS G12V in SW620. NCI-H358 (ATCC-CRL5807) cells, AGS (ATCC-CRL-1739) cells, SW620 (ATCC-CCL-227) cells were all grown and maintained using RPMI-1640 medium (Thermo Fisher Scientific) with 10% fetal bovine serum and 1% penicillin/streptomycin. On the day prior to compound addition, cells were plated in tissue culture-treated 96 well plates (Corning-3699) at a density of 30,000 cell/well, 20,000 cell/well, 30,000 cell/well for NCI-H358, AGS and SW620 respectively, and allowed for attachment overnight. Diluted compounds were then added in a final concentration of 0.5% DMSO. After 4 hours of incubation, the medium was removed, 100 μL of 4% formaldehyde was added, and the assay plates were incubated at room temperature for 20 minutes. The plates were then washed once with phosphate buffered saline (PBS), and permeabilized with 100 μL of chilled methanol for 10 minutes. Non-specific antibody binding to the plates was blocked using 50 μL 1X BSA blocking buffer (Thermo-37520, 10-fold dilution by Phosphate-Buffered Saline Tween (PBST) for at least 1 hour at room temperature.
(§2) The amount of phosphor-ERK was determined using an antibody specific for phosphorylated form of ERK. Primary antibody (PERK, CST-4370, Cell Signaling Technology) was diluted 1:300 in blocking buffer, with 50 μL aliquoted to each well, and incubated overnight at 4° C. Cells was washed five times for 5 minutes with PBST. Secondary antibody (HRP-linked anti-rabbit IgG, CST-7074, Cell Signaling Technology) was diluted 1:1000 in blocking buffer, and 50 μL was added to each well and incubated 1-2 hrs at room temperature. Cells was washed […] for 5 minutes with PBST, 100 μL TMB ELISA substrate (abcam-ab171523) were added and gently shake for 20 minutes. 50 μL stop solution (abcam-ab 171529) were added, and then read the signal (OD450) by EnVision.
(§3) IC50 was determined by fitting a 4-parameter sigmoidal concentration response model.

Assay [2] deals with phosphorylation of ERK, KRAS G12C in NCI-H358 cells. Briefly: pERK inhibition assay. It is filed as cell-based. The following applies: Homo sapiens, NCI-H358, 4 h. How it is done: as §1, §2, §3
For assay [3], the system named is phosphorylation of ERK, KRAS G12D in AGS cells. Briefly: pERK inhibition assay. Conditions: Homo sapiens, AGS, 4 h. The class given is cell-based. How it is done:
as §1, §2, §3

Assay [4] has as its system NCI-H358 cells (KRAS G12C). The experiment in a line: Cell viability assay (Cell Counting Kit-8, 3-day). It is filed as cell-based, human. The following applies: Homo sapiens, NCI-H358, 72 h, NCI-H358, 72 hrs incubation. How it is done: (§4) The purpose of this cellular assay was to determine the effects of test compounds on the proliferation of human cancer cell lines NCI-H358 (ATCC-CRL5807) cells, AGS (ATCC-CRL-1739) cells, SW620 (ATCC-CCL-227) over a 3-day treatment period by quantifying the amount of NADPH present at endpoint using Cell Counting Kit-8.
(§5) Cells were seeded at 5,000 cells/well (NCI-H358), 2,000 cells/well (AGS) 2,000 cells/well (SW620) in 96-well assay plates (Corning-3699) and incubated overnight. On the day of the assay, diluted compounds were then added in a final concentration of 0.5% DMSO. After 72 hrs incubation, a tenth of the volume of cell counting kit 8 (Dnjindo-CK04) was added into each well. Read the signal (OD450 minus OD650) using EnVision after 2 hrs incubation. IC50 was determined by fitting a 4-parameter sigmoidal concentration response model.
For orientation: Formazan colour is commonly taken as a measure of viable cells.

A further assay concerns AGS cells (KRAS G12D). Briefly: Cell viability assay (Cell Counting Kit-8, 3-day). It is filed as cell-based, human. Conditions: Homo sapiens, 72 h, 72 hrs incubation. How it is done: as §4, §5
Another assay relates to SW620 cells (KRAS G12V). The experiment in a line: Cell viability assay (Cell Counting Kit-8, 3-day). It is filed as cell-based, human. Conditions: Homo sapiens, SW-620; SW620, 72 hrs incubation. How it is done: as §4, §5

KRAS G12C-BRAF complex, sequence (P01116-2 other isoform, or with tags, fused parts or gaps G12C): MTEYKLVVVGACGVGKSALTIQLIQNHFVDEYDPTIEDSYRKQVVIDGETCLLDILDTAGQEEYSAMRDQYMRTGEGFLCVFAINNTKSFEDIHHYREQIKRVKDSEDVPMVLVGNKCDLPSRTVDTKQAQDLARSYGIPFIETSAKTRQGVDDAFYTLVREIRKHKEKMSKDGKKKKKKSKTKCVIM
KRAS G12C-BRAF complex, sequence (P62937 whole entry): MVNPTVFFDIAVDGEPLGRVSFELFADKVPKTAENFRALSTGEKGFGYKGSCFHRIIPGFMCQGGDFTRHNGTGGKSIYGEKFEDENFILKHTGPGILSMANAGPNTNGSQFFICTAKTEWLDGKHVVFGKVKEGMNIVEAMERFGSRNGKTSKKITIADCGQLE

As to `CO[C@@H](C)c1ncc(N2CCN(CC(F)(F)F)CC2)cc1-c1c2c3cc(cc4c3n1CCC4)-c1csc(n1)C[C@H](NC(=O)[C@H]1C[C@@H]1C)C(=O)N1CCC[C@H](N1)C(=O)OCC(C)(C)C2` (atropisomer, axis not shown; (M)) [Example 3, (1S,2S)-N-[(7S,13S)-(20M)-20-[2-[(1S)-1-methoxyethyl]-5-[4-(2,2,2-trifluoroethyl)piperazin-1-yl]-3-pyridyl]-17,17-dimethyl-8,14-dioxo-15-oxa-4-thia-9,21,30,31-tetrazahexacyclo[23.3.1.1^2,5.1^9,13.0^19,27.0^21,26]hentriaconta-1 (28),2,5 (31), 19,25 (29),26-hexaen-7-yl]-2-methyl-cyclopropanecarboxamide], the IC50 against KRAS G12C-BRAF complex was 31.4 nM; in assay [1], 3.6 nM; in assay [2] it was 5.1 nM; in assay [3] it was 24.3 nM.

`CO[C@@H](C)c1ncc(N2CCOCC2)cc1-c1c2c3cc(cc4c3n1[C@@H](C)CO4)-c1csc(n1)C[C@H](NC(=O)[C@H]1C[C@@H]1C)C(=O)N1CCC[C@H](N1)C(=O)OCC(C)(C)C2` (atropisomer, axis not shown; (M)) [Example 53, (1S,2S)-N-[(7S,13S,22S)-(20M)-20-[2-[(1S)-1-methoxyethyl]-5-morpholino-3-pyridyl]-17,17,22-trimethyl-8,14-dioxo-15,24-dioxa-4-thia-9,21,30,31-tetrazahexacyclo[23.3.1.1^2,5.1^9,13.0^19,27.0^21,26]hentriaconta-1 (28),2,5 (31), 19,25 (29),26-hexaen-7-yl]-2-methyl-cyclopropanecarboxamide]: the IC50 at KRAS G12C-BRAF complex came out at 65.7 nM; in assay [1], 24.5 nM; in assay [2], 21.2 nM; in assay [3] it was 176 nM.

With `CO[C@@H](C)c1ncc(N2CCN(C)CC2)cc1-c1c2c3cc(cc4c3n1CCC4)-c1csc(n1)C[C@H](NC(=O)[C@H]1CC[C@](C)(O)CC1)C(=O)N1CCC[C@H](N1)C(=O)OCC(C)(C)C2` (atropisomer, axis not shown; (M)) [Example 71, trans-4-hydroxy-N-[(7S,13S)-(20M)-20-[2-[(1S)-1-methoxyethyl]-5-(4-methylpiperazin-1-yl)-3-pyridyl]-17,17-dimethyl-8,14-dioxo-15-oxa-4-thia-9,21,30,31-tetrazahexacyclo[23.3.1.1^2,5.1^9,13.0^19,27.0^21,26]hentriaconta-1 (28),2,5 (31), 19,25 (29),26-hexaen-7-yl]-4-methyl-cyclohexanecarboxamide], the IC50 at KRAS G12C-BRAF complex was determined as 28.9 nM; in assay [1] it was 6.5 nM; in assay [2], 3.6 nM; in assay [3] it was 51.5 nM.

Turning to `CO[C@@H](C)c1ncc(N2CCN(C)CC2)cc1-c1c2c3cc(cc4c3n1CCC4)-c1csc(n1)C[C@H](NC(=O)C1CCOCC1)C(=O)N1CCC[C@H](N1)C(=O)OCC(C)(C)C2` (atropisomer, axis not shown; (M)) [Example 77, N-[(7S,13S)-(20M)-20-[2-[(1S)-1-methoxyethyl]-5-(4-methylpiperazin-1-yl)-3-pyridyl]-17,17-dimethyl-8,14-dioxo-15-oxa-4-thia-9,21,30,31-tetrazahexacyclo[23.3.1.1^2,5.1^9,13.0^19,27.0^21,26]hentriaconta-1 (28),2,5 (31),19,25 (29),26-hexaen-7-yl]tetrahydropyran-4-carboxamide], the IC50 on KRAS G12C-BRAF complex is 41.8 nM; in assay [1], 4 nM; in assay [2], 4.4 nM; in assay [3], 26.1 nM.

Turning to `CO[C@@H](C)c1ncc(N2CCN(C)CC2)cc1-c1c2c3cc(cc4c3n1CCC4)-c1csc(n1)C[C@H](NC(=O)C1CCC(F)(F)C1)C(=O)N1CCC[C@H](N1)C(=O)OCC(C)(C)C2` (stereo partly drawn) [Example 65, 3,3-difluoro-N-[(7S,13S)-(20M)-20-[2-[(1S)-1-methoxyethyl]-5-(4-methylpiperazin-1-yl)-3-pyridyl]-17,17-dimethyl-8,14-dioxo-15-oxa-4-thia-9,21,30,31-tetrazahexacyclo[23.3.1.1^2,5.1^9,13.0^19,27.0^21,26]hentriaconta-1 (28),2,5 (31), 19,25 (29),26-hexaen-7-yl]cyclopentanecarboxamide], the IC50 was 51.3 nM against KRAS G12C-BRAF complex, 5 nM in assay [1], 2.3 nM in assay [2] and 31.7 nM in assay [3].

In the case of `CO[C@@H](C)c1ncc(N2CCN(C)CC2)cc1-c1c2c3cc(cc4c3n1CCC4)-c1csc(n1)C[C@H](NC(=O)C13CC(CO1)C3)C(=O)N1CCC[C@H](N1)C(=O)OCC(C)(C)C2` [Example 66, N-[(7S,13S)-(20M)-20-[2-[(1S)-1-methoxyethyl]-5-(4-methylpiperazin-1-yl)-3-pyridyl]-17,17-dimethyl-8,14-dioxo-15-oxa-4-thia-9,21,30,31-tetrazahexacyclo[23.3.1.1^2,5.1^9,13.0^19,27.0^21,26]hentriaconta-1 (28),2,5 (31), 19,25 (29),26-hexaen-7-yl]-2-oxabicyclo[2.1.1]hexane-1-carboxamide], the IC50 against KRAS G12C-BRAF complex stood at 50.5 nM; in assay [1], 3.3 nM; in assay [2], 2.6 nM; in assay [3] it was 40.2 nM.

With `CO[C@@H](C)c1ncc(N2CCN(C)CC2)cc1-c1c2c3cc(cc4c3n1CCCCC4)-c1csc(n1)C[C@H](NC(=O)[C@H]1[C@H](C)[C@@H]1C)C(=O)N1CCC[C@H](N1)C(=O)OCC(C)(C)C2` [Example 127, (1r,2R,3S)-N-[(7S,13S)-(20M)-20-[2-[(1S)-1-methoxyethyl]-5-(4-methylpiperazin-1-yl)-3-pyridyl]-17,17-dimethyl-8,14-dioxo-15-oxa-4-thia-9,21,32,33-tetrazahexacyclo[25.3.1.1^2,5.1^9,13.0^19,29.0^21,28]tritriaconta-1 (30),2,5 (33),19,27 (31),28-hexaen-7-yl]-2,3-dimethyl-cyclopropanecarboxamide], the IC50 stood at 1000 nM in assay [4]; 1000 nM with AGS cells (KRAS G12D); 27 nM with SW620 cells (KRAS G12V); 30 nM in assay [1]; 30 nM in assay [2]; 697 nM in assay [3].

For orientation: IC50 means the concentration that gives 50% inhibition.

Source of the values: patent publication US20240417410A1, “TRICYCLIC COMPOUNDS FOR THE TREATMENT OF CANCER” (Hoffmann-La Roche Inc., priority 2023, published 2024).
